From US20250129068A1 (IP2IPO INNOVATIONS LIMITED, priority 2021, published 2025)

target: full-length human GCN2 enzyme (Homo sapiens (Human), UniProt Q9P2K8); test: GCN2 enzyme inhibition, LanthaScreen TR-FRET Kinase Activity assay; type: biochemical; conditions: 10 μM ATP; mean of 1 to 3 replicate assays
Method: The inhibitory activity of the Example compounds towards GCN2 enzyme was measured according to the description below, using a LanthaScreen TR-FRET (Time Resolved Fluorescence Resonance Energy Transfer) Kinase Activity assay distributed by ThermoFisher Scientific.
The full-length human GCN2 enzyme (UniProt accession number Q9P2K8) was used for all experiments (Carna Bioscience). The TR-FRET pair was composed of GFP-elF2a and LanthaScreen Terbium-labeled anti-pelF2a (pSer52) Antibody.
Each example compound was dissolved in DMSO (0.15 mM) and dispensed in a 384-well plate by a D300 dispenser (Tecan) to a final concentration range 3000-0.13 nM using the logarithmic dilution mode in 2 replicates. Full inhibition (3000 nM commercial reference inhibitor) and DMSO vehicle control wells were also included on the same plate. All volumes were normalized to the final DMSO concentration of 2% of the reaction volume. Next, 5 μL of H2O was added to each well of the plate.
The enzyme mixture was prepared to obtain the following concentrations: • GCN2—30 nM • unloaded tRNA—0.3 nM • HEPES (pH=7.0)—100 mM • MgCl2—20 mM; MnCl2—10 mM
The mixture was applied by adding 5 μL to each well of the plate. The enzyme and the tested compound were then incubated at room temperature for 20 min while shaking at 450 rpm.
The substrate mixture was prepared to obtain the following concentrations: • GFP-elF2α—240 nM • ATP-30 PM • HEPES (pH=7.0)—50 mM • MgCl2—10 mM • MnCl2—5 mM.
The mixture was applied by adding 5 μL to each well of the plate. Thus, the final concentrations of the 15 μL reaction mixture were as follows: • GCN2—10 nM • unloaded tRNA—0.1 nM • GFP-elF2α—80 nM • ATP-10 μM • HEPES (1 M, pH=7.0)—50 mM • MgCl2—10 mM • MnCl2—5 mM.
The reaction was allowed to proceed at room temperature for 30 min while shaking at 450 rpm.
The antibody mixture was prepared to obtain the following concentrations: • Na2EDTA·2H2O—40 mM, in TR-FRET Dilution Buffer (Life technologies) • Tb-anti-pelF2a antibodies—4 nM.
The mixture was applied by adding 15 μL to each well. The plate was then incubated at room temperature for 60 min while shaking at 450 rpm and then read using Tecan Spark reader using specific TR-FRET filters.
The analysis of the GFP/Tb fluorescence results was conducted with GraphPad Prism to determine IC50 for each of the example compounds using 4-parameter model: log (inhibitor) vs. response-variable slope. IC50 and Ki values were calculated in the usual way. The assay was carried out between 1 and 3 times. The results in the table below are the mean results from replicate assays for the compound in question, where applicable.

full-length human GCN2 enzyme, sequence (Q9P2K8 whole entry): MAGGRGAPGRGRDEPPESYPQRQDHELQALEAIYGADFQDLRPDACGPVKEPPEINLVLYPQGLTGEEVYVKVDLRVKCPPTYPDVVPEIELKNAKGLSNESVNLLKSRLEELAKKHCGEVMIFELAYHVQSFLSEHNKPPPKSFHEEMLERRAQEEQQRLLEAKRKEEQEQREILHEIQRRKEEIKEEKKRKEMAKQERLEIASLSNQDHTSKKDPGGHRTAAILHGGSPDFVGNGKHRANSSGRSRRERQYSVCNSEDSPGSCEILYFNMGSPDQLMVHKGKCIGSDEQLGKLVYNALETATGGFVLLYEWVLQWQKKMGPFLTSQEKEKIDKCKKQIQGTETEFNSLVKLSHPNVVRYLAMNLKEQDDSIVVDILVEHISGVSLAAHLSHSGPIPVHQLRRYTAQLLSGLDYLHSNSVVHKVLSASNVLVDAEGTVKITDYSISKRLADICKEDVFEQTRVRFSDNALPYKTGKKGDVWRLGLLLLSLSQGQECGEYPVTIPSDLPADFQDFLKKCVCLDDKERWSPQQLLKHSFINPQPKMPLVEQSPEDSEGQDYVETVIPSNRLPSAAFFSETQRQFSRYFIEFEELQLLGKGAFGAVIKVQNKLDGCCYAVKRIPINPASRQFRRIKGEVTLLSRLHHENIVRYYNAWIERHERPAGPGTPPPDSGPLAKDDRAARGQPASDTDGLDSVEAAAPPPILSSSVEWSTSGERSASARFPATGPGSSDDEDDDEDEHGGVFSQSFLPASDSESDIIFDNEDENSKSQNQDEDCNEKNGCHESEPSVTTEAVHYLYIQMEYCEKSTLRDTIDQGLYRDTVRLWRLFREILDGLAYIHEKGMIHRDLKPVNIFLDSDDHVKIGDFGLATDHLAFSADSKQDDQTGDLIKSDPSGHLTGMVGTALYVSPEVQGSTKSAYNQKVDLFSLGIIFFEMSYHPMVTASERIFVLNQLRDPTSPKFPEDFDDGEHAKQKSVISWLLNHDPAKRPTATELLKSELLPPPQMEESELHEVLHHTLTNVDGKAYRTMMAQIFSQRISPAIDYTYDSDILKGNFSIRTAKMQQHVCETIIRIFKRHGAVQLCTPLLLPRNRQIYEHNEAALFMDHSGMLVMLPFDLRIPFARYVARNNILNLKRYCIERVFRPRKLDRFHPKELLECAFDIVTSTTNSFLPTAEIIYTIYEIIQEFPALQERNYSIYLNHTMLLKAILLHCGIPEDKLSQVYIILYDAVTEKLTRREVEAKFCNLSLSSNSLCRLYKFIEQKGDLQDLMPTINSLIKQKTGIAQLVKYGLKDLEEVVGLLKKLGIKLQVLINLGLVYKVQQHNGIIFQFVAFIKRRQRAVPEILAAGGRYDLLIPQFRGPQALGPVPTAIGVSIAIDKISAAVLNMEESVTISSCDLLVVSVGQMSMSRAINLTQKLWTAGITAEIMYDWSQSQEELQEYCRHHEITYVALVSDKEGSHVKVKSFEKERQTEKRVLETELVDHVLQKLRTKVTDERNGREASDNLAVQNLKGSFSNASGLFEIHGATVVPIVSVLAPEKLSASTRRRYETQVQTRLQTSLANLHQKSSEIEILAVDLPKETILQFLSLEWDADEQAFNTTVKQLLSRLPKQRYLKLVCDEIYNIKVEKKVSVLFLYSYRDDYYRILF

First: COc1cccc(S(=O)(=O)Nc2nccc(C#Cc3cnc4[nH]ncc4c3)c2F)c1F [Example 1, 2-Fluoro-N-[3-fluoro-4-(2-{1H-pyrazolo[3,4-b]pyridin-5-yl}ethynyl)pyridin-2-yl]-3-methoxybenzene-1-sulfonamide]
Second: COc1ncccc1S(=O)(=O)Nc1nccc(C#Cc2cnc3[nH]ncc3c2)c1F [Example 8, N-[3-Fluoro-4-(2-{1H-pyrazolo[3,4-b]pyridin-5-yl}ethynyl)pyridin-2-yl]-2-methoxypyridine-3-sulfonamide]
The Ki of the first is 2.9-fold higher: 172 nM for the first, 59.9 nM for the second. The second binds more tightly here.

`N#Cc1cccc(S(=O)(=O)Nc2nccc(C#Cc3cnc4[nH]ncc4c3)c2F)c1` [Example 2, 3-Cyano-N-[3-fluoro-4-(2-{1H-pyrazolo[3,4-b]pyridin-5-yl}ethynyl)pyridin-2-yl]benzene-1-sulfonamide] and `COc1cccc(S(=O)(=O)Nc2nccc(C#Cc3cnc4[nH]ncc4c3)c2F)c1` [Example 3] are within 1.5-fold of each other in Ki: 107 nM for the first, 128 nM for the second.

Going from `Cc1ncc(Cl)cc1S(=O)(=O)Nc1nccc(C#Cc2cnc3[nH]ncc3c2)c1F` [Example 4, 5-Chloro-N-[3-fluoro-4-(2-{1H-pyrazolo[3,4-b]pyridin-5-yl}ethynyl)pyridin-2-yl]-2-methylpyridine-3-sulfonamide] to `Cc1cnc(C)c(S(=O)(=O)Nc2nccc(C#Cc3cnc4[nH]ncc4c3)c2F)c1` [Example 11, N-[3-Fluoro-4-(2-{1H-pyrazolo[3,4-b]pyridin-5-yl}ethynyl)pyridin-2-yl]-2,5-dimethylpyridine-3-sulfonamide], the Ki rises from 2.49 nM to 8.17 nM (3.3-fold).

`COc1ncc(C(F)(F)F)cc1S(=O)(=O)Nc1nccc(C#Cc2cnc3[nH]ncc3c2)c1F` [Example 5, N-[3-Fluoro-4-(2-{1H-pyrazolo[3,4-b]pyridin-5-yl}ethynyl)pyridin-2-yl]-2-methoxy-5-(trifluoromethyl)pyridine-3-sulfonamide] and `COc1ncc(C)cc1S(=O)(=O)Nc1nccc(C#Cc2cnc3[nH]ncc3c2)c1F` [Example 9, N-[3-Fluoro-4-(2-{1H-pyrazolo[3,4-b]pyridin-5-yl}ethynyl)pyridin-2-yl]-2-methoxy-5-methyl-pyridine-3-sulfonamide] are within 1.5-fold of each other in Ki: 5.78 nM for the first, 6.6 nM for the second.

First: Cc1nc(C)c(S(=O)(=O)Nc2nccc(C#Cc3cnc4[nH]ncc4c3)c2F)s1 [Example 6, N-[3-Fluoro-4-(2-{1H-pyrazolo[3,4-b]pyridin-5-yl}ethynyl)pyridin-2-yl]-2,4-dimethyl-1,3-thiazole-5-sulfonamide]
Second: Cc1ccc(S(=O)(=O)Nc2nccc(C#Cc3cnc4[nH]ncc4c3)c2F)c(C)n1 [Example 14, N-[3-Fluoro-4-(2-{1H-pyrazolo[3,4-b]pyridin-5-yl}ethynyl)pyridin-2-yl]-2,6-dimethylpyridine-3-sulfonamide]
The Ki of the first is 1.6-fold higher: 29.3 nM for the first, 17.8 nM for the second. The second binds more tightly here.

First: O=S(=O)(Nc1nccc(C#Cc2cnc3[nH]ncc3c2)c1F)c1cncc(Cl)c1 [Example 7, 5-Chloro-N-[3-fluoro-4-(2-{1H-pyrazolo[3,4-b]pyridin-5-yl}ethynyl)pyridin-2-yl]pyridine-3-sulfonamide]
Second: CCOc1ncc(Cl)cc1S(=O)(=O)Nc1nccc(C#Cc2cnc3[nH]ncc3c2)c1F [Example 18, 5-Chloro-2-ethoxy-N-[3-fluoro-4-(2-{1H-pyrazolo[3,4-b]pyridin-5-yl}ethynyl)-pyridin-2-yl]pyridine-3-sulfonamide]
The Ki of the first is 14-fold higher: 127 nM for the first, 8.83 nM for the second.

First: O=S(=O)(Nc1nccc(C#Cc2cnc3[nH]ncc3c2)c1F)c1cccc2c1OCO2 [Example 10, N-[3-Fluoro-4-(2-{1H-pyrazolo[3,4-b]pyridin-5-yl}ethynyl)pyridin-2-yl]-2H-1,3-benzodioxole-4-sulfonamide]
Second: O=S(=O)(Nc1nccc(C#Cc2cnc3[nH]ncc3c2)c1F)c1ccc(Cl)cc1CO [Example 19]
The Ki of the first is 3.2-fold higher: 209 nM for the first, 65 nM for the second.

First: COc1ncc(C#N)cc1S(=O)(=O)Nc1nccc(C#Cc2cnc3[nH]ncc3c2)c1F [Example 12, 5-Cyano-N-[3-fluoro-4-(2-{1H-pyrazolo[3,4-b]pyridin-5-yl}ethynyl)pyridin-2-yl]-2-methoxypyridine-3-sulfonamide]
Second: Cc1ncc(F)cc1S(=O)(=O)Nc1nccc(C#Cc2cnc3[nH]ncc3c2)c1F [Example 16, 5-Fluoro-N-[3-fluoro-4-(2-{1H-pyrazolo[3,4-b]pyridin-5-yl}ethynyl)pyridin-2-yl]-2-methylpyridine-3-sulfonamide]
The Ki of the first is 1.9-fold higher: 7.76 nM for the first, 4.19 nM for the second.

In the case of `O=S(=O)(Nc1nccc(C#Cc2cnc3[nH]ncc3c2)c1F)c1cc(Cl)cnc1CCO` [Example 20, 5-chloro-N-[3-fluoro-4-(2-{1H-pyrazolo[3,4-b]pyridin-5-yl}ethynyl)pyridin-2-yl]-2-(2-hydroxyethyl)pyridine-3-sulfonamide], the Ki is reported as 67 nM.
